“Also recorded” adds a separate entry of the source.
Assays:
[1] = test system: T2 cells loaded with pp65495-503; details: mouse, in vivo; cited from earlier work
[2] = test system: human PBL; details: cited from earlier work
[3] = test system: JA2.1 T cells infected with vaccinia virus expressing pp65; parameters: species or system HLA A2.1/K^b transgenic mice; details: mouse, in vivo, sc

In the case of NLVPMVATV [pp65495-503], the “CTL response directed at the pp65495-503 CTL epitope” value [1] is given as “robust CTL response” and the “CTL precursor memory response” value [2] is given as “stimulates a CTL precursor (CTLp) memory response”.

In the case of VSTIVPYIGPALNIAAANLVPMVATV [Tet639V], the “recognition of endogenously processed pp65” value [3] is reported as “evident; also recorded: more prominent”.
